For one substance, IC50 results are on record in paper PMC8724943 (Translational Oncology, 2021).

The target of this experiment is p21 activated kinase 4 (PAK4) (Homo sapiens, UniProt O96013). The experiment is described as follows: in vitro radiometric kinase assay. Format: biochemical.

pIC50: −log10 of the molar value.

Chain of p21 activated kinase 4 (PAK4) (O96013 whole entry): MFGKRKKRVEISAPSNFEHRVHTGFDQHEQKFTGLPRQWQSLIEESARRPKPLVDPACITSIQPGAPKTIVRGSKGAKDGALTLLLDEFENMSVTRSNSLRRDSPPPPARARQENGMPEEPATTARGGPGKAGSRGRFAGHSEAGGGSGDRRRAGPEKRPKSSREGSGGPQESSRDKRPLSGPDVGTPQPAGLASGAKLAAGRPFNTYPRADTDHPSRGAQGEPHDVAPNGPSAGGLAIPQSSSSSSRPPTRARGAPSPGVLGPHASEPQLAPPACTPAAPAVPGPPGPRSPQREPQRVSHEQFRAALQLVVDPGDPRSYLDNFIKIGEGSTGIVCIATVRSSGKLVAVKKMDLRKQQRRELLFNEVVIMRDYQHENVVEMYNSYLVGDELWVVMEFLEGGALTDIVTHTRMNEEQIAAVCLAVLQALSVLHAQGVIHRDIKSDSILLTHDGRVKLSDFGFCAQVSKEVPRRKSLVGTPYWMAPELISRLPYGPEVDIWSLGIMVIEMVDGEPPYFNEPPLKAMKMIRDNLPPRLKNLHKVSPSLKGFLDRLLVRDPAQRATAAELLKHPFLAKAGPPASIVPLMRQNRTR

For the substance PAKib, the pIC50 (usually the IC50 on a negative log10 scale, so that one unit is a factor of ten) is around 6.30.
